TGI data for nine molecules are collected here from PubChem BioAssay (NCI).

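Results reflect a 48-hour exposure of cells in 96-well plates to compound at five concentrations. TGI is the concentration that stops growth completely.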

Common to all, as to test: NCI tumour cell line growth inhibition, 48 h
In experiment [1] the test system is HCT-116 colon.
For experiment [2], the system named is MCF7 breast.
Experiment [3] concerns MDA-N.
Experiment [4] has as its system NCI-H522 lung.
Experiment [5] concerns OVCAR-4 ovarian.
Experiment [6] concerns RXF 393 renal.
Experiment [7] deals with SF-268 CNS.
In experiment [8] the test system is SF-295 CNS.
Experiment [9] deals with SF-539 CNS.
Experiment [10] relates to SK-MEL-2 melanoma.
For experiment [11], the system named is SK-MEL-28 melanoma.
For experiment [12], the system named is SK-MEL-5 melanoma.
The subject of experiment [13] is SN12C renal.
For experiment [14], the system named is SNB-19 CNS.
The test system of experiment [15] is SR leukemia.
Experiment [16] concerns T-47D breast.
Experiment [17] relates to TK-10 renal.

With `O=c1[nH]c(Nc2cccc(C(F)(F)F)c2)nc2nc[nH]c12`, the TGI in [1], in [2], in [3], in experiment [4], in experiment [5] and in [6] was more than 100 µM throughout. The TGI in [7], in experiment [8], in experiment [9], in [10], in [11] and in experiment [12] was more than 100 µM throughout. The TGI in [13], in experiment [14], in [15], in experiment [16] and in experiment [17] was more than 100 µM each time.
In the case of `O=[N+]([O-])c1cccc2nc3ccccc3c(NCCc3cccc[n+]3[O-])c12`, the TGI in experiment [2] worked out at 0.276 µM; in experiment [3] it was 0.0464 µM; in [4], 0.157 µM; in [5], 0.212 µM; in experiment [6], 0.11 µM; in experiment [7], 0.202 µM. Moreover, the TGI was 0.266 µM in [8]; 0.194 µM in experiment [9]; 0.528 µM in [10]; less than 0.01 µM in experiment [11]; less than 0.01 µM in experiment [12]; 0.28 µM in experiment [13]. In addition, the TGI was 1.62 µM in experiment [14], 0.161 µM in experiment [15], 0.852 µM in experiment [16] and 0.225 µM in [17].
`CC1CC[C@@]2(OC1)OC1C[C@H]3[C@@H]4C/C(=N\N(C)C)[C@@]5(O)CC(O)CC[C@]5(C)[C@H]4CC[C@]3(C)C1[C@@H]2C` (some centres undefined): the TGI in [1] was 76.1 µM; in experiment [2], more than 100 µM; in experiment [3] it was 52.6 µM; in experiment [5], more than 100 µM; in experiment [6], 61.2 µM; in experiment [7] it was more than 100 µM. Moreover, the TGI in [9], in [10], in [11], in [12], in [13] and in experiment [14] was more than 100 µM each time. In addition, the TGI in [15] was 54.6 µM; in [16] it was more than 100 µM; in experiment [17], more than 100 µM.
As for `O=C1Nc2cccc(Cl)c2/C1=C\c1c(Cl)nc2sccn12`, the TGI in experiment [1] was more than 100 µM; in [2], more than 100 µM; in experiment [3], more than 100 µM; in experiment [4], more than 100 µM; in experiment [6] it was 29.6 µM; in [7], 52.5 µM. Besides, the TGI was more than 100 µM in experiment [8]; 18.8 µM in experiment [9]; 30.2 µM in experiment [10]; more than 100 µM in experiment [11]; more than 100 µM in [12]; more than 100 µM in [13]. In addition, the TGI was 39.7 µM in experiment [14], more than 100 µM in experiment [15], more than 100 µM in experiment [16] and 24.6 µM in experiment [17].
As for `COC(=O)C(O)P(=O)(OC)OC` (centres undefined), the TGI in experiment [1], in [2], in experiment [3], in [4], in experiment [5] and in experiment [6] was more than 100 µM each time. Further, the TGI in experiment [7], in [8], in experiment [10], in experiment [11], in experiment [12] and in experiment [13] was more than 100 µM in each case. For the same molecule, the TGI in experiment [14], in experiment [15] and in experiment [16] was more than 100 µM throughout.
Regarding `Cc1c(CCOC=O)c(=O)[nH]c2nncn12`, the TGI in experiment [1], in [2], in experiment [3], in experiment [4], in experiment [5] and in [6] was more than 100 µM each time. Further, the TGI in experiment [7], in experiment [8], in experiment [9], in [11], in experiment [12] and in experiment [13] was more than 100 µM in each case. In addition, the TGI in experiment [14], in experiment [15], in [16] and in experiment [17] was more than 100 µM in each case.
In the case of `Cc1cn(C2CCC(/C=N\O)O2)c(=O)[nH]c1=O` (centres undefined), the TGI in experiment [1], in experiment [2], in experiment [3], in experiment [5], in experiment [6] and in experiment [8] was more than 100 µM in each case. The TGI in [9], in [10], in experiment [11], in experiment [12], in [13] and in experiment [14] was more than 100 µM each time. Besides, the TGI in experiment [15] and in [16] was more than 100 µM throughout.
Take `O=C(/C=C/c1ccc(Cl)cc1)Oc1ccc(/C=C2\CCCCC2=O)cc1`: the TGI in experiment [1], in [2], in experiment [3], in experiment [4], in experiment [5] and in experiment [7] was more than 100 µM throughout. In addition, the TGI in [8], in experiment [9], in [10], in experiment [11], in experiment [12] and in [13] was more than 100 µM in each case. In addition, the TGI in experiment [15], in experiment [16] and in [17] was more than 100 µM in each case.
Consider `CC1(C)CC(=O)C2=C(C1)c1c(ccc3ccccc13)NC2c1cn(Cc2ccc(Cl)cc2)c2ccccc12` (centres undefined), for which the TGI in [1], in experiment [2], in experiment [3], in experiment [4], in [5] and in experiment [7] was more than 100 µM each time. Moreover, the TGI in [8], in experiment [9], in experiment [10], in experiment [12], in experiment [13] and in experiment [14] was more than 100 µM in each case. Besides, the TGI in [15], in [16] and in experiment [17] was more than 100 µM each time.
